Experimental data: US5786508A, “Substituted kynurenines and process for their preparation” (Pharmacia & Upjohn S.p.A., priority 1995, dated 1998)

Columns and labels:
[1] = molecular target: T1, KAT (Rattus norvegicus, UniProt Q08415); test: Kinetic analysis of KAT inhibitors using a partially purified enzyme preparation; assay type: biochemical; conditions: KYN 2 μM to 2 mM; double reciprocal plots; pyruvate 1 mM; pH 8.0, 37° C.
T1 construct: a preparation of partially purified enzyme; from tissue; the cited method purifies from rat kidney and brain (own knowledge)
T1 sequence (Q08415 1-423): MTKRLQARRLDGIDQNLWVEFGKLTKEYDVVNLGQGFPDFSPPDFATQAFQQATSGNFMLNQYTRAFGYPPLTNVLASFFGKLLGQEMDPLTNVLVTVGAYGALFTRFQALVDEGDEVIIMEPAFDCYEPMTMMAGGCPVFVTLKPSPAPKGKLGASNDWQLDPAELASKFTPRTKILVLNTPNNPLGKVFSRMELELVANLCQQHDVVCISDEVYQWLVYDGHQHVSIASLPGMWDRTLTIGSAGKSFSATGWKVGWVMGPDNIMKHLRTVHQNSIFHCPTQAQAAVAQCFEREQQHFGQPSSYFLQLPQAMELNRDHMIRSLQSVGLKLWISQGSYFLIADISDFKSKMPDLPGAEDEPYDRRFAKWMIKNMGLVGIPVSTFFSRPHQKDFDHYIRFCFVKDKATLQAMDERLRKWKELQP
Experimental: C) Kinetic analysis of KAT inhibitors using a partially Purified enzyme Preparation (Brain Research, 534, 37-44 (1990)
The reaction mixture contained [^3 H]KYN (30 nCi), diluted with unlabelled KYN to yield a final concentration of 2 μM, 1 mM pyruvate, 70 μM pyridoxal 5'-phosphate, 150 mM Tris-acetate buffer, pH 8.0, and a preparation of partially purified enzyme in a total volume of 0.1 ml. Test compounds were included in the incubation mixture as needed. The reaction was started by the addition of pyruvate. After incubation for 2 h at 37° C., the reaction was terminated by the addition of 14 μl of 50% (w/w) trichloroacetic acid. Subsequently, 1 ml of 0.1M HCl was added and denaturated protein was removed by a 4-min centrifugation in a Beckman 52B microfuge. 1 ml of the resulting supernatant was applied to a Dowex 50W column (0.5×1.0 cm; H^+ form) and washed with 1 ml of 0.1M HCl, followed by 1 ml of distilled water. [^3 H]KYNA was eluted with 2 ml of distilled water and quantitated by liquid scintillation spectrometry. Enzyme measurements were performed in triplicate samples. […]
Kinetic experiments were performed using the standard KAT assay described above by varying the concentration of KYN between 2 μM and 2 mM in the absence or presence of set concentrations of test compounds. Double reciprocal plots were constructed and lines of best fit were determined by linear regression analysis.

[2] = test system: Kynurenine Aminotransferase (KAT); test: Determination of KAT activity inhibition in rat brain homogenate; assay type: biochemical; conditions: 2 μM [3H]KYN, 2 h at 37° C., pH 8.0
Experimental: A) Determination of KAT activity inhibition in rat brain homogenate
KAT was measured as described in detail by Okuno et al. (Measurement of rat brain kynurenine amino-transferase at physiological kynurenine concentrations, J. Neurochem., 57, 533-540, 1991).
Briefly, animals were killed by decapitation and the brain tissue was homogenized (1:5 v/w in 5 mM Tris-acetate buffer, pH 8.0, containing 10 mM 2-mercaptoethanol and 50 μM pyridoxal 5'-phosphate) and incubated for 2 h at 37° C. in the presence of 2 μM [^3 H]KYN (30 nCi), 1 mM 2-oxoglutarate and 70 μM pyridoxal 5'-phosphate in 150 mM Tris-acetate buffer, pH 8.0. The reaction was terminated by the addition of trichloroacetic acid.
Newly synthesized [^3 H]KYNA was separated from [^3 H]KYN on a Dowex 50W cation-exchange column and quantitated by liquid scintillation spectrometry. Blanks were obtained by using tissue which had been heat-deactivated for 10 minutes in a boiling water bath.

[3] = test system: KYNA production; test: Determination of inhibition of KYNA production by rat tissue slices (cerebral cortex); assay type: cell-based; conditions: 50 μM L-KYN, 2 h at 37° C.
Experimental: B) Determination of inhibition of KYNA production by rat tissue slices
Routinely, slices (base 1×1 mm; weight 1.5 mg/slice) from the cerebral cortex were separated on ice and transferred to culture wells (10 slices/well) containing 1 ml of oxygenated Krebs-Ringer buffer (NaCl, 118.5 mM; KCl, 4.75 mM; CaCl2, 1.77 mM; MgSO4, 1.18 mM; NaH2 PO4, 12.9 mM; NaH2 PO4, 3 mM; glucose, 5 mM; pH 7.4). Subsequently, the tissue was preincubated for 10 min at 37° C. and incubated further for 2 h at 37° C., in the presence of 50 μM L-KYN in an oxygenated chamber, on a shaking water bath. Compounds of the present invention were included in the incubation mixture as needed. Following incubation, the culture wells were immediately placed on ice, and the slices were rapidly separated from the incubation medium. For KYNA determination, 1 ml samples of the incubation medium were immersed in a boiling water bath for 10 min, and the precipitated proteins were removed by centrifugation (8,730×g, 10 min). The supernatants were diluted (1:1, v/v) with 0.2M HCl and applied to Dowex 50W (hydrogen form, Sigma) cation-exchange columns (0.5×2 cm). Subsequently, the columns were washed with 1 ml of 0.1M HCl and 1 ml of water, and the fraction containing KYNA was eluted with 2 ml of water. The eluates were applied to a 3-μm C18 HPLC column (100×3.2 internal diameter, Bioanalytical Systems, West Lafayette, Ind., U.S.A.), and KYNA was isocratically eluted with a mobile phase containing 50 mM ammonium acetate and 5% methanol at a flow rate of 0.5 ml/min. Under these conditions, the retention time of KYNA was ≈7 min.
Data were recorded and calculated with a Hewlett-Packard 3390A integrator connected to a model 160 UV absorbance detector (Beckman Instruments, Berkeley, Calif., U.S.A.) set at 340 nm.

[4] = test system: glycine modulatory site of the N-methyl-D-aspartate (NMDA) receptor complex; conditions: J. Neurochem., 52, 1319-1328, 1989; in words; cited from earlier work

Row | Compound | Km [1] | KYNA production % of inhibition ([2]; 100 μM) | KYNA production % of inhibition ([2]; 1000 μM) | inhibition at 100 µM [3] | inhibition at 1000 µM [3] | Ki [1] | inhibition at 300 µM ([3]; at 300 μM (footnote *)) | affinity to the glycine modulatory site of the NMDA receptor complex [4]
1 | Nc1ccccc1C(=O)C[C@H](N)C(=O)O [L-kynurenine, reference compound] | 369 µM | – | – | – | – | – | – | –
2 | Nc1ccc(Cl)cc1C(=O)C[C@H](N)C(=O)O [FCE 28443, (S)-(-)-2-amino-4-(2-amino-5-chlorophenyl)-4-oxo-butyric acid] | – | 61% | 89% | 67% | 91% | – | – | –
3 | Nc1ccc(F)cc1C(=O)CC(N)C(=O)O (centres unmarked) [FCE 27949, 2-amino-4-(2-amino-5-fluorophenyl)-4-oxo-butyric acid] | – | 30% | 74% | 48% | 70% | – | – | –
4 | Nc1ccc(Br)cc1C(=O)CC(N)C(=O)O (centres unmarked) [FCE 28264, 2-amino-4-(2-amino-5-bromophenyl)-4-oxo-butyric acid] | – | 52% | 83% | 58% | 72% | – | – | –
5 | Nc1ccc(C2CCCCC2)cc1C(=O)CC(N)C(=O)O (centres unmarked) [FCE 28263, 2-amino-4-(2-amino-5-cyclohexylphenyl)-4-oxo-butyric acid] | – | 47% | 77% | 28% | 45% | – | – | –
6 | Nc1ccc(Cl)cc1C(=O)CC(N)C(=O)O (centres unmarked) [FCE 27813, 2-amino-4-(2-amino-5-chlorophenyl)-4-oxo-butyric acid] | – | 45% | 81% | 63% | 84% | 88 µM | – | –
7 | Cc1ccc(N)c(C(=O)CC(N)C(=O)O)c1 (centres unmarked) [FCE 27946, 2-amino-4-(2-amino-5-methylphenyl)-4-oxo-butyric acid] | – | 13% | 51% | – | 64% | – | 50% | –
8 | O=C(O)c1cc(=O)c2ccccc2[nH]1 [KYNA, Kynurenic Acid] | – | – | – | – | – | – | – | particularly high affinity
9 | CCc1ccc(N)c(C(=O)CC(N)C(=O)O)c1 (centres unmarked) [FCE 28026, 2-amino-4-(2-amino-5-ethylphenyl)-4-oxo-butyric acid] | – | 30% | 78% | 8% | 49% | – | – | –
10 | CCCc1ccc(N)c(C(=O)CC(N)C(=O)O)c1 (centres unmarked) [FCE 28244, 2-amino-4-(2-amino-5-n-propylphenyl)-4-oxo-butyric acid] | – | 50% | 72% | 27% | 70% | – | – | –
11 | CC(C)c1ccc(N)c(C(=O)CC(N)C(=O)O)c1 (centres unmarked) [FCE 28441, 2-amino-4-(2-amino-5-isopropylphenyl)-4-oxo-butyric acid] | – | 45% | 72% | 5% | 54% | – | – | –
12 | Nc1ccc(Cl)cc1C(=O)C[C@@H](N)C(=O)O [FCE 28442, (R)-(+)-2-amino-4-(2-amino-5-chlorophenyl)-4-oxo-butyric acid] | – | – | 31% | – | 45% | – | – | –
